Source: US9572821B2, “Pharmaceutical compositions for preventing and treating eye pathologies” (MITOTECH SA, priority 2006, dated 2017)

Tests used:
Format in all cases: in vivo, rat
[1] = test system: lenses of Wistar rats; assay: Therapeutic experiment, state of crystalline lenses, Wistar rats aged 10.5 months; details: examination after therapy course at the age of 12 months, 50 nmol per kg of body weight, score 0-3
Method: The study was carried out using OXYS and Wistar male rats. The animals were housed in cages (five rats per a cage) and kept under standard laboratory conditions (at 22±1° C., 60% relative humidity, and natural light), provided with a standard rodent diet (PK-120-1, Ltd. ‘Laboratorsnab’, Russia), and given water ad libitum. At the age of 1.5 months after preliminary pupil dilation with 1% tropicamide ophthalmic the rats were examined by ophthalmologist. […]
(§1) The lens state was evaluated according to the classification system accepted in clinical practice (L. A. Katsnelson, T. I. Forofonova, A. Ya. Bunin, 1990) with grades ranging from 0 to 3: score 0—the lens is clear; score 1—spotted weak cloudiness; score 2—multiple spots of cloudiness and score 3—intense cloudiness of the lens core and nucleus. The presence and the degree of spotted changes in macular area were evaluated according to accepted classification: score 0—no changes; score 1—the 1st stage of pathology, when small yellow deposits, known as “drusen” appear underneath the macula; score 2—2nd stage, the development of prominent yellow spot with sharp edges with the size of 0.5 to 1 of the disk diameter (exudative detachment of pigment retinal epithelium); and score 3—3rd stage with extensive hemorrhage into macular area. […]

[2] = test system: retina of Wistar rats; assay: Therapeutic experiment, macular area of retina, Wistar rats aged 10.5 months; details: for Changes of macular area of retina, grades (score): Wistar rats, examination after therapy course at the age of 12 months, 50 nmol per kg of body weight, score 0-3
Method: The study was carried out using OXYS and Wistar male rats. The animals were housed in cages (five rats per a cage) and kept under standard laboratory conditions (at 22±1° C., 60% relative humidity, and natural light), provided with a standard rodent diet (PK-120-1, Ltd. ‘Laboratorsnab’, Russia), and given water ad libitum. At the age of 1.5 months after preliminary pupil dilation with 1% tropicamide ophthalmic the rats were examined by ophthalmologist. […], which is critical for the development of pronounced changes in eye organ of OXYS rats, the animals were given either SkQ1 (50 nmol per kg of body weight), or KBr (50 nmol per kg of body weight) or vitamin E (alfa-tocopherol acetate, 20 mg per kg). We use Vitamin E for a comparison with test antioxidants. Animals received the compounds on a small piece of dried bread before a regular meal, and the control group of animals received the same piece of bread without any compound. After completing the course of antioxidants the animals were weighed and retested with ophthalmoscope. To avoid human factor in the evaluation of compound effects, the researcher who conducted the ophthalmoscopic examination was not told which of the animals received antioxidants. […]
as §1

[3] = test system: macular dystrophy (retinopathy) in OXYS rats; assay: Therapeutic effect on macular area of retina, OXYS rats aged 10.5 months; details: for pathological changes of retina, before vs after the therapy course / Changes of macular area of retina, grades (score): OXYS rats; for pathological changes of retina, before vs after the therapy course: 10.5 to 12 months, pair comparisons / comparison of average values; for Changes of macular area of retina, grades (score): examination after therapy course at the age of 12 months, 50 nmol per kg of body weight, score 0-3
Method: The study was carried out using OXYS and Wistar male rats. The animals were housed in cages (five rats per a cage) and kept under standard laboratory conditions (at 22±1° C., 60% relative humidity, and natural light), provided with a standard rodent diet (PK-120-1, Ltd. ‘Laboratorsnab’, Russia), and given water ad libitum. At the age of 1.5 months after preliminary pupil dilation with 1% tropicamide ophthalmic the rats were examined by ophthalmologist. […] We use Vitamin E for a comparison with test antioxidants. Animals received the compounds on a small piece of dried bread before a regular meal, and the control group of animals received the same piece of bread without any compound. After completing the course of antioxidants the animals were weighed and retested with ophthalmoscope. To avoid human factor in the evaluation of compound effects, the researcher who conducted the ophthalmoscopic examination was not told which of the animals received antioxidants.
(§2) The ophthalmoscopic examination was carried out using direct ophthalmoscope “Betta”, Germany. In selected animals under fluorotane narcosis (1-1.5 minutes) eyeground was photographed, fluorescent angiography with the use of “Opton” fundus-camera was conducted or crystalline lenses were examined by means of slitlamp “Opton SL30” using system of automatic image registration (biomicroscopic research).
(§3) The lens state was evaluated according to the classification system accepted in clinical practice (L. A. Katsnelson, T. I. Forofonova, A. Ya. Bunin, 1990) with grades ranging from 0 to 3: score 0—the lens is clear; score 1—spotted weak cloudiness; score 2—multiple spots of cloudiness and score 3—intense cloudiness of the lens core and nucleus. The presence and the degree of spotted changes in macular area were evaluated according to accepted classification: score 0—no changes; score 1—the 1st stage of pathology, when small yellow deposits, known as “drusen” appear underneath the macula; score 2—2nd stage, the development of prominent yellow spot with sharp edges with the size of 0.5 to 1 of the disk diameter (exudative detachment of pigment retinal epithelium); and score 3—3rd stage with extensive hemorrhage into macular area.
(§4) Statistical processing of the results was carried out using the factorial dispersive analysis (ANOVA/MANOVA, Statistica, 5) with post hoc comparison of group average (Newman-Keul test) considering genotype and preparation as independent factors.

[4] = test system: cataract in OXYS rats; assay: Prophylactic effect on cataract (lens changes), ophthalmoscopic examination of OXYS rats; details: for lens changes observed/registered (cataract morbidity): after oral course from 1.5 to 3 months, % of eyes/cases; for lens changes observed/registered (cataract morbidity) / cataract newly affected/added during the course (20% of eyes already affected at 1.5 months): SkQ1 or KBr 50 nmol per kg; for 2nd stage of cataract: KBr: % of total number of eyes, vitamin E: % of changes
Method: (§5) The study was carried out using OXYS and Wistar male rats. The animals were housed in cages (five rats per a cage) and kept under standard laboratory conditions (at 22±1° C., 60% relative humidity, and natural light), provided with a standard rodent diet (PK-120-1, Ltd. ‘Laboratorsnab’, Russia), and given water ad libitum. At the age of 1.5 months after preliminary pupil dilation with 1% tropicamide ophthalmic the rats were examined by ophthalmologist. During the period from 1.5 to 3 months, which is critical for the development of pronounced changes in eye organ of OXYS rats, the animals were given either SkQ1 (50 nmol per kg of body weight), or KBr (50 nmol per kg of body weight) or vitamin E (alfa-tocopherol acetate, 20 mg per kg). We use Vitamin E for a comparison with test antioxidants. Animals received the compounds on a small piece of dried bread before a regular meal, and the control group of animals received the same piece of bread without any compound. After completing the course of antioxidants the animals were weighed and retested with ophthalmoscope. To avoid human factor in the evaluation of compound effects, the researcher who conducted the ophthalmoscopic examination was not told which of the animals received antioxidants.
as §2, §3, §4

[5] = test system: macular dystrophy in OXYS rats; assay: Prophylactic effect on macular dystrophy (changes in macular area of retina), ophthalmoscopic examination of OXYS rats; details: for changes in the macular area of the retina (macular dystrophy morbidity): after oral course from 1.5 to 3 months, % of eyes/cases; for changes in the macular area of the retina (macular dystrophy morbidity) / macular dystrophy newly affected during the course (10% already affected at 1.5 months): SkQ1 or KBr 50 nmol per kg; for 2nd stage of macular degeneration: KBr: % of these changes
Method: as §5, §2, §3, §4

[6] = test system: cataract in OXYS rats; assay: Therapeutic effect on state of crystalline lenses, OXYS rats aged 10.5 months; details: for pathological changes of lenses, before vs after the therapy course: 10.5 to 12 months, pair comparisons / comparison of average values; for Changes of lenses, grades (score): examination after therapy course at the age of 12 months, 50 nmol per kg of body weight, score 0-3
Method: The study was carried out using OXYS and Wistar male rats. The animals were housed in cages (five rats per a cage) and kept under standard laboratory conditions (at 22±1° C., 60% relative humidity, and natural light), provided with a standard rodent diet (PK-120-1, Ltd. ‘Laboratorsnab’, Russia), and given water ad libitum. At the age of 1.5 months after preliminary pupil dilation with 1% tropicamide ophthalmic the rats were examined by ophthalmologist. […], which is critical for the development of pronounced changes in eye organ of OXYS rats, the animals were given either SkQ1 (50 nmol per kg of body weight), or KBr (50 nmol per kg of body weight) or vitamin E (alfa-tocopherol acetate, 20 mg per kg). We use Vitamin E for a comparison with test antioxidants. Animals received the compounds on a small piece of dried bread before a regular meal, and the control group of animals received the same piece of bread without any compound. After completing the course of antioxidants the animals were weighed and retested with ophthalmoscope. To avoid human factor in the evaluation of compound effects, the researcher who conducted the ophthalmoscopic examination was not told which of the animals received antioxidants.
as §2, §3, §4

[7] = OXYS rats after SkQ1 therapy course
[8] = OXYS rats at 3 months, after course from 1.5 to 3 months, SkQ1 50 nmol per kg
[9] = OXYS rats at 3 months, vitamin E 20 mg per kg
[10] = OXYS rats, 1.5 to 3 months, SkQ1 50 nmol per kg
[11] = OXYS rats, 1.5 to 3 months, vitamin E 20 mg per kg
[12] = one month after the end of SkQ1 administration, in contrast to the control group
[13] = OXYS rats at 3 months, after course from 1.5 to 3 months

SMILES | Changes of lenses, grades (score) [1] | Changes of macular area of retina, grades (score) [2] | pathological changes of retina, before vs after the therapy course [3] | Changes of macular area of retina, grades (score) [3] | lens changes observed/registered (cataract morbidity) [4, 9] | cataract newly affected/added during the course (20% of eyes already affected at 1.5 months) [4, 11] | changes in the macular area of the retina (macular dystrophy morbidity) [5, 9] | macular dystrophy newly affected during the course (10% already affected at 1.5 months) ([5]; OXYS rats, 1.5 to 3 months) | pathological changes of lenses, before vs after the therapy course [6] | Changes of lenses, grades (score) [6] | 2nd stage of cataract [4, 13] | 2nd stage of macular degeneration [5, 13] | also measured
CC1=C(C)C(=O)C(CCCCCCCCCC[P+](c2ccccc2)(c2ccccc2)c2ccccc2)=CC1=O.[Br-] [SkQ1] | 0.54 ± 0.14 score | 0.09 ± 0.06 score | much less pronounced | 0.32 ± 0.13 score | 46% | 26% | 38% | 28% | much less pronounced | 0.41 ± 0.13 score |  |  | animals with changes of retina appropriate to even the most initial stage of disease ([2]; Wistar rats supplemented with SkQ1, after 45 days): practically absent; hemorrhages in retina [3, 7]: resolution of hemorrhages; ischemic centers in retina [3, 7]: reduction of quantity and area of ischemic centers; puffiness of retina [3, 7]: significant reduction of puffiness; stage to which the lens changes corresponded [4, 8]: 1st stage of cataract; cataract cases, times less than in the group supplemented with KBr [4, 10]: 2.8 times; effect on cataract progression ([4]; OXYS rats, FIG. 3): essentially affected their progression; changes in the state of crystalline lens after the end of the course [4, 12]: no any changes; stage to which the macular changes corresponded [5, 8]: 1st stage of macular degeneration; macular dystrophy cases, times less than in the control group [5, 10]: 2.8 times; effect on macular dystrophy progression ([5]; OXYS rats, FIG. 4): essentially affected their progression; changes in the state of retina after the end of the course [5, 12]: no any changes
CC(=O)Oc1c(C)c(C)c2c(c1C)CCC(C)(CCC[C@H](C)CCC[C@H](C)CCCC(C)C)O2 (some centres unmarked) [vitamin E, alfa-tocopherol acetate] |  |  |  |  | 58% | 38% | 54% |  |  |  | 12% | 8% | cataract cases, times less than in the control intact group [4, 11]: 1.8 times; macular changes, times less than in the control intact group [5, 11]: 1.5 times
[Br-].[K+] [KBr, reference compound] | 0.5 ± 0.15 score | 0.25 ± 0.10 score | no any changes | 1.13 ± 0.17 score | 93% | 73% | 87% | 77% | authentically aggravated | 1.6 ± 0.23 score | 57% | 13% | 
